In patent publication US10435399B2, “HDAC6 inhibitory heterocyclic compound” (TAKEDA PHARMACEUTICAL COMPANY LIMITED, priority 2017, dated 2019):

Molecular target: T1, HDAC6 enzyme (Homo sapiens, UniProt Q9UBN7)
T1 construct: transducing full length HDAC6 gene into Sf-9 insect cells; GST; purchased SignalChem; host or cells: Sf-9 insect cells
T1 sequence (Q9UBN7 1-1215): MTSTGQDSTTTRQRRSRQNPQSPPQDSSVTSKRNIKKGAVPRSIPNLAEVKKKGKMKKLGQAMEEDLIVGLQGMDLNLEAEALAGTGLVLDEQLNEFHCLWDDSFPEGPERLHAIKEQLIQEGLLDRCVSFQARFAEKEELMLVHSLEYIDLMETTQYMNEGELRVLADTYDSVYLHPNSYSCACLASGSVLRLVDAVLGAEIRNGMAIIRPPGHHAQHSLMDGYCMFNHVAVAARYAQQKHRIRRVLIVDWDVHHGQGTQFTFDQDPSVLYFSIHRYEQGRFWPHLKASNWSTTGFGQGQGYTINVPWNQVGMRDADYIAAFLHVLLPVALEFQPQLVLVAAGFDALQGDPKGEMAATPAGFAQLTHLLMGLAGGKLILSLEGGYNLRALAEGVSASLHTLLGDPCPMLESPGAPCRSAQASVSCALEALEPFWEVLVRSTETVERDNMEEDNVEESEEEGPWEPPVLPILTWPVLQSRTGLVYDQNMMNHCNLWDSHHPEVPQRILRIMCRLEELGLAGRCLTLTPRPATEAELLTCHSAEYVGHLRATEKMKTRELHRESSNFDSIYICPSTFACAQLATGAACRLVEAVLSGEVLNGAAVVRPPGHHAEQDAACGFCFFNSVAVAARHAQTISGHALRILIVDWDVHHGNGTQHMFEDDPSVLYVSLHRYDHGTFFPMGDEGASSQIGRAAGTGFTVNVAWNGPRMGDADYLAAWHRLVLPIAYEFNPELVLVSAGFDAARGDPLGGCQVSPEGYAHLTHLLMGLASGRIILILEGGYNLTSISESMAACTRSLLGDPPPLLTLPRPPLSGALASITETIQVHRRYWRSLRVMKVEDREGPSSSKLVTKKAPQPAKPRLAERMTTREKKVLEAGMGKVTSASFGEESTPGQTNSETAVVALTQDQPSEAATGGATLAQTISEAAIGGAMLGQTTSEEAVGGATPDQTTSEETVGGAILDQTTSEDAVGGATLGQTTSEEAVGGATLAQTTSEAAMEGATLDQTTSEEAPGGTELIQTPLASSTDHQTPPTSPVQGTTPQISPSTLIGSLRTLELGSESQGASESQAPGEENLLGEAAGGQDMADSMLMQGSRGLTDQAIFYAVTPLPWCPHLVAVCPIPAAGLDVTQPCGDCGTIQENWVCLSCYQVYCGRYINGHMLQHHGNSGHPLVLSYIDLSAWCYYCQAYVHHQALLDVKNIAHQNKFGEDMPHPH
Assay: HDAC6 enzyme inhibitory activity (HDAC-Glo I/II Assay kit)
Assay type: biochemical
Conditions: 10 μM; wells without enzyme = 100% inhibition; read-out: HDAC6 inhibitory rate (%) (10 μM)
Outline: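 Full-length human HDAC6 (GST-purified, Sf-9 expressed) preincubated with compound 60 min at room temperature in Tris-HCl pH 7.5 buffer with MgCl2, KCl, NaCl, glutathione, Tween-20. HDAC-Glo I/II substrate-developer then added, 20 min room temperature, luminescence read. Inhibition relative to no-enzyme wells as 100%.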

| Structure (SMILES) | inhibition at 10 µM [%] |
| --- | --- |
| O=C1c2cc(-c3nnc(C(F)F)o3)ccc2CN1c1ccccc1-c1cccc(C(F)(F)F)c1 [Example 171, 6-(5-(difluoromethyl)-1,3,4-oxadiazol-2-yl)-2-(3′-(trifluoromethyl)biphenyl-2-yl)isoindolin-1-one] | 101 |
| CS(=O)(=O)c1cccc(-c2ccccc2N2Cc3ccc(-c4nnc(C(F)F)o4)cc3C2=O)c1 [Example 172, 6-(5-(difluoromethyl)-1,3,4-oxadiazol-2-yl)-2-(3′-(methylsulfonyl)biphenyl-2-yl)isoindolin-1-one] | 100 |
| N[C@@H]1CCCC[C@H]1N1Cc2c(F)cc(-c3nnc(C(F)F)o3)cc2C1=O [Example 173, 2-((1R,2R)-2-aminocyclohexyl)-6-(5-(difluoromethyl)-1,3,4-oxadiazol-2-yl)-4-fluoroisoindolin-1-one] | 91 |
| O=C1CCCN1[C@@H]1CCCC[C@H]1N1Cc2ncc(-c3nnc(C(F)F)o3)cc2C1=O [Example 177, 3-(5-(difluoromethyl)-1,3,4-oxadiazol-2-yl)-6-((1R,2R)-2-(2-oxopyrrolidin-1-yl)cyclohexyl)-6,7-dihydro-5H-pyrrolo[3,4-b]pyridin-5-one] | 97 |
| CC1(C)OB(c2ccccc2N2Cc3ccc(-c4nnc(C(F)F)o4)cc3C2=O)OC1(C)C [Example 178, 6-(5-(difluoromethyl)-1,3,4-oxadiazol-2-yl)-2-(2-(4,4,5,5-tetramethyl-1,3,2-dioxaborolan-2-yl)phenyl)isoindolin-1-one] | 41 |
| O=C1c2ccccc2CN1[C@@H]1CCCC[C@H]1N1Cc2ncc(-c3nnc(C(F)F)o3)cc2C1=O [Example 179, 3-(5-(difluoromethyl)-1,3,4-oxadiazol-2-yl)-6-((1R,2R)-2-(1-oxo-1,3-dihydro-2H-isoindol-2-yl)cyclohexyl)-6,7-dihydro-5H-pyrrolo[3,4-b]pyridin-5-one] | 100 |
| O=C(N[C@@H]1CCCC[C@H]1N1Cc2c(F)cc(-c3nnc(C(F)F)o3)cc2C1=O)[C@@H]1CC1(F)F [Example 185, (1S)-N-((1R,2R)-2-(6-(5-(difluoromethyl)-1,3,4-oxadiazol-2-yl)-4-fluoro-1-oxo-1,3-dihydro-2H-isoindol-2-yl)cyclohexyl)-2,2-difluorocyclopropanecarboxamide] | 100 |
| O=C1c2cc(-c3nnc(C(F)F)o3)cnc2CN1[C@@H]1CCCC[C@H]1N1C(=O)c2ccccc2C1=O [Example 186, 2-((1R,2R)-2-(3-(5-(difluoromethyl)-1,3,4-oxadiazol-2-yl)-5-oxo-5,7-dihydro-6H-pyrrolo[3,4-b]pyridin-6-yl)cyclohexyl)-H-isoindole-1,3(2H)-dione] | 101 |
| O=C1c2cc(-c3nnc(C(F)F)o3)ccc2CN1C1(C(=O)NCC(F)(F)F)CC1 [Example 187, 1-(6-(5-(difluoromethyl)-1,3,4-oxadiazol-2-yl)-1-oxo-1,3-dihydro-2H-isoindol-2-yl)-N-(2,2,2-trifluoroethyl)cyclopropanecarboxamide] | 92 |
| Cn1cc(-c2ccccc2)c(N2Cc3ccc(-c4nnc(C(F)F)o4)cc3C2=O)n1 [Example 188, 6-(5-(difluoromethyl)-1,3,4-oxadiazol-2-yl)-2-(1-methyl-4-phenyl-1H-pyrazol-3-yl)isoindolin-1-one] | 98 |
| O=C(N[C@@H]1COCC[C@H]1N1Cc2c(F)cc(-c3nnc(C(F)F)o3)cc2C1=O)c1ccccc1Cl [Example 189, 2-chloro-N-((3S,4R)-4-(6-(5-(difluoromethyl)-1,3,4-oxadiazol-2-yl)-4-fluoro-1-oxo-1,3-dihydro-2H-isoindol-2-yl)tetrahydro-2H-pyran-3-yl)benzamide] | 100 |
| CC(C)(C)OC(=O)N1CC[C@@H](N2Cc3ncc(-c4nnc(C(F)F)o4)cc3C2=O)[C@@H](c2ccccc2)C1 [Example 192, tert-butyl (3S,4R)-4-(3-(5-(difluoromethyl)-1,3,4-oxadiazol-2-yl)-5-oxo-5,7-dihydro-6H-pyrrolo[3,4-b]pyridin-6-yl)-3-phenylpiperidine-1-carboxylate] | 100 |

The remaining lines, values ahead:

| inhibition at 10 µM [%] | Structure (SMILES) |
| --- | --- |
| 102 | O=C1c2cc(-c3nnc(C(F)F)o3)cc(F)c2CN1[C@@H]1COCC[C@H]1NC(=O)C(F)(F)C(F)(F)F [Example 174, N-((3S,4R)-3-(6-(5-(difluoromethyl)-1,3,4-oxadiazol-2-yl)-4-fluoro-1-oxo-1,3-dihydro-2H-isoindol-2-yl)tetrahydro-2H-pyran-4-yl)-2,2,3,3,3-pentafluoropropanamide] |
| 100 | CC(C)(C(=O)N[C@@H]1CCOC[C@H]1N1Cc2c(F)cc(-c3nnc(C(F)F)o3)cc2C1=O)C(F)(F)F [Example 175, N-((3S,4R)-3-(6-(5-(difluoromethyl)-1,3,4-oxadiazol-2-yl)-4-fluoro-1-oxo-1,3-dihydro-2H-isoindol-2-yl)tetrahydro-2H-pyran-4-yl)-3,3,3-trifluoro-2,2-dimethylpropanamide] |
| 100 | O=C1c2cc(-c3nnc(C(F)F)o3)cc(F)c2CN1[C@@H]1COCC[C@H]1NC(=O)C1(C(F)(F)F)CC1 [Example 176, N-((3S,4R)-3-(6-(5-(difluoromethyl)-1,3,4-oxadiazol-2-yl)-4-fluoro-1-oxo-1,3-dihydro-2H-isoindol-2-yl)tetrahydro-2H-pyran-4-yl)-1-(trifluoromethyl)cyclopropanecarboxamide] |
| 100 | O=C(N[C@@H]1CCOC[C@H]1N1Cc2c(F)cc(-c3nnc(C(F)F)o3)cc2C1=O)c1ccccc1Cl [Example 180, 2-chloro-N-((3S,4R)-3-(6-(5-(difluoromethyl)-1,3,4-oxadiazol-2-yl)-4-fluoro-1-oxo-1,3-dihydro-2H-isoindol-2-yl)tetrahydro-2H-pyran-4-yl)benzamide] |
| 97 | O=C(N[C@@H]1CCOC[C@H]1N1Cc2c(F)cc(-c3nnc(C(F)F)o3)cc2C1=O)c1cccc(Cl)c1 [Example 181, 3-chloro-N-((3S,4R)-3-(6-(5-(difluoromethyl)-1,3,4-oxadiazol-2-yl)-4-fluoro-1-oxo-1,3-dihydro-2H-isoindol-2-yl)tetrahydro-2H-pyran-4-yl)benzamide] |
| 99 | CCC(=O)N[C@@H]1CCCC[C@H]1N1Cc2c(F)cc(-c3nnc(C(F)F)o3)cc2C1=O [Example 182, N-((1R,2R)-2-(6-(5-(difluoromethyl)-1,3,4-oxadiazol-2-yl)-4-fluoro-1-oxo-1,3-dihydro-2H-isoindol-2-yl)cyclohexyl)propanamide] |
| 99 | O=C1c2cc(-c3nnc(C(F)F)o3)cc(F)c2CN1[C@@H]1CCCC[C@H]1NC(=O)C(F)(F)F [Example 183, N-((1R,2R)-2-(6-(5-(difluoromethyl)-1,3,4-oxadiazol-2-yl)-4-fluoro-1-oxo-1,3-dihydro-2H-isoindol-2-yl)cyclohexyl)-2,2,2-trifluoroacetamide] |
| 102 | CC(F)(F)C(=O)N[C@@H]1CCCC[C@H]1N1Cc2c(F)cc(-c3nnc(C(F)F)o3)cc2C1=O [Example 184, N-((1R,2R)-2-(6-(5-(difluoromethyl)-1,3,4-oxadiazol-2-yl)-4-fluoro-1-oxo-1,3-dihydro-2H-isoindol-2-yl)cyclohexyl)-2,2-difluoropropanamide] |
| 100 | O=C(N[C@@H]1COCC[C@H]1N1Cc2c(F)cc(-c3nnc(C(F)F)o3)cc2C1=O)c1cccc(Cl)c1 [Example 190, 3-chloro-N-((3S,4R)-4-(6-(5-(difluoromethyl)-1,3,4-oxadiazol-2-yl)-4-fluoro-1-oxo-1,3-dihydro-2H-isoindol-2-yl)tetrahydro-2H-pyran-3-yl)benzamide] |
| 101 | CCC(=O)N[C@@H]1COCC[C@H]1N1Cc2c(F)cc(-c3nnc(C(F)F)o3)cc2C1=O [Example 191, N-((3S,4R)-4-(6-(5-(difluoromethyl)-1,3,4-oxadiazol-2-yl)-4-fluoro-1-oxo-1,3-dihydro-2H-isoindol-2-yl)tetrahydro-2H-pyran-3-yl)propanamide] |
